Assay results from patent publication US20190000803A1, “CHONDROITIN COMPLEXES FOR TRANSCUTANEOUS ABSORPTION” (Altergon S.A., priority 2012, published 2019).
One block for each compound: values may come before it.

Assays:
[1] = Franz cell, human skin; cited from earlier work
[2] = In vivo transcutaneous absorption of diclofenac gels in nude mice; design: species or system Charles River nude mice; conditions: conclusion from tables 8-10
Procedure: During the study the animals were kept in individual cages, with unrestricted access to food and water.
The animals were euthanised 1, 5 and 10 h after the application, as reported in the trial design in table 7. Immediately after euthanisation the gel application area was washed thoroughly to discriminate between the radioactivity applied and the radioactivity absorbed by the skin. The treated skin areas, liver and blood were recovered from the euthanised animals, and the samples were weighed and frozen immediately after removal. The urine of the animals was recovered from the cages by washing.

[3] = Absorption of diclofenac by human skin using the Franz cell; type: in vitro ADME; conditions: compared with absence of the polysaccharide or presence of chondroitin sulphate
Procedure: The skin was frozen to −20° C. immediately after removal, and kept at that temperature until the time of use. Before being placed in the Franz cells, the frozen skin was cleaned of subcutaneous fat, so that only the stratum corneum, the epidermis and the dermis were used, and cut to a size suitable for positioning in the Franz cell, with the stratum corneum facing upwards. Before the study began, the cell was maintained at 30° C. for 10 h with continual stirring of the receptor solution consisting of 10 mL of HBSS (Hank's Buffered Saline Solutions). The surface on which the formulation was deposited measured about 3 cm^2. Before application of the gel in the cells, the receptor solution was replaced, taking care to eliminate all air bubbles between skin and solution.
At the indicated times the receptor phase was recovered and the skin surface was washed thoroughly to remove all the unabsorbed gel. The skin was recovered, homogenised and digested for 10 h under stirring at 30° C. with collagenase (5,200 I/g of skin) in 10 mM of phosphate buffer pH 7.4. At the end of the incubation, 0.4 volumes of ethanol were added and the mixture was centrifuged at 10,000 rpm for 20 min. […] The eluate was monitored at 276 nm.

[4] = Topical absorption and distribution of [3H]chondroitin gels in nude mice; type: in vivo, Charles River nude mice
Procedure: 60 five-month-old Charles River nude mice of both sexes were used as experimental model to evaluate the transcutaneous absorption of chondroitin. The animals were randomised into 12 groups of 5 which, as reported in the study design in table 1, were treated with 50 mg of [^3H]chondroitin gel with different MWs, prepared as described in example 1. During the study the animals were kept in individual cages, with unrestricted access to food and water.
The animals were euthanised 1, 5, 10 and 20 h after the application, as reported in the trial design in table 1. Immediately after euthanisation the gel application area was thoroughly washed until no detectable traces of radioactivity remained in the washing water, in order to discriminate between the radioactivity applied and the radioactivity absorbed by the skin. The treated skin areas, liver and blood were recovered from the euthanised animals, and the samples were weighed and frozen immediately after removal. The urine of the animals was recovered from the cages by washing.
Skin, liver and blood samples (150-200 mg) were solubilised in Soluene […] at ambient temperature. The radioactivity was measured by liquid-phase scintillation on the solubilised samples and the urine.

[5] = Absorption of ketorolac by human skin using the Franz cell; type: in vitro ADME; conditions: compared with absence of the polysaccharide
Procedure: 10 mg of the following gels was applied to the skin surface: a) tromethamine ketorolac salt gel (per gram of gel: 100 mg of polyethylene glycol, 1 mg of benzyl alcohol, 200 mg of tromethamine ketorolac salt and water q.s. for 1 g, dissolved at 50° C. under vigorous stirring); b) tromethamine ketorolac salt-chondroitin gel (0.535 moles of tromethamine ketorolac salt/mole of disaccharide chondroitin units; per gram of gel: 100 mg of polyethylene glycol, 1 mg of benzyl alcohol, 200 mg of chondroitin MW 62 KDa, 100 mg of tromethamine ketorolac salt and water q.s. for 1 g, dissolved at 50° C. under vigorous stirring).
The quantity of ketorolac present in the skin washing solution (unabsorbed part), in the enzymatic tissue digestate (part absorbed by the skin) and in the receptor fluid (part that crossed the skin structure) was determined quantitatively by HPLC. The tests were conducted on a Waters model 746 (USA) HPLC, equipped with a μ-bondapack C18 column (150×4.6 millimetres). A solution of acetonitrile, deionised water and orthophosphoric acid (45:54.5:0.5 in vol.), with a final pH of 3.5, was used as mobile phase, operating with a flow rate of 1 mL/min. The eluate was monitored at 280 nm. Quantitation was performed by measuring the ratios between the peak area of ketorolac and the peak area of the internal standard, consisting of a naproxen solution with a known titre.

[6] = Dialysis equilibrium study of diclofenac release from diclofenac-chondroitin complexes; type: physicochemical; conditions: 2 KDa cut-off, 100 mL in 2 L water, 25° C.

Compound: heparin
- ability to transport diclofenac and ibuprofen in the skin [1]: are not

Compound: hyaluronic acid
- ability to transport diclofenac and ibuprofen in the skin [1]: able to transport diclofenac and ibuprofen in the skin

Compound: O=C(O)Cc1ccccc1Nc1c(Cl)cccc1Cl [Diclofenac only, 2-(2-[2,6-dichlorophenylamino]phenyl) ethanoic acid]
- % OD275 present in the dialysis medium ([6]; 1 h): 85%
- % OD275 present in the dialysis medium ([6]; 2 h): 94%
- % OD275 present in the dialysis medium ([6]; 4 h): 96%
- % OD275 present in the dialysis medium ([6]; 8 h): 95%
- % OD275 present in the dialysis medium ([6]; 16 h): 96%

Continued, in another order:

- acts as transdermal carrier of diclofenac [2]: not
Compound: chondroitin sulphate
- ability to transport diclofenac and ibuprofen in the skin [1]: are not

- absorption of diclofenac in the presence of chondroitin [3]: increases significantly
- radioactivity in skin, % of dose applied ([4]; skin, 1 h after topical application of 50 mg gel): about 50 % of dose applied
- radioactivity in urine, % of dose applied ([4]; urine, 20 h): about 25 % of dose applied
- absorption of ketorolac in the presence of chondroitin [5]: increases significantly
Compound: chondroitin
- acts as transdermal carrier of diclofenac [2]: acts as an efficient transdermal carrier of diclofenac
